This note sets out measurements from ChEMBL document CHEMBL1157736, “2,3-Diaminopyrazines as Rho kinase inhibitors” (Bioorg Med Chem Lett, 2010).

Data set [1] has as its target Rho-associated protein kinase 1 (Homo sapiens, UniProt Q13464). The experiment in a line: Inhibition of human recombinant ROCK1.
Data set [2] addresses Rho-associated protein kinase 2 (Homo sapiens, UniProt O75116). The experiment in a line: Inhibition of human recombinant ROCK2.
For the next data set, the target named is Cytochrome P450 2C19 (Homo sapiens, UniProt P33261). The experiment in a line: Inhibition of CYP2C19. The format is ADME.
The next data set has as its target T1, Cytochrome P450 2C8 (Homo sapiens, UniProt P10632).
T1 sequence (P10632 whole entry): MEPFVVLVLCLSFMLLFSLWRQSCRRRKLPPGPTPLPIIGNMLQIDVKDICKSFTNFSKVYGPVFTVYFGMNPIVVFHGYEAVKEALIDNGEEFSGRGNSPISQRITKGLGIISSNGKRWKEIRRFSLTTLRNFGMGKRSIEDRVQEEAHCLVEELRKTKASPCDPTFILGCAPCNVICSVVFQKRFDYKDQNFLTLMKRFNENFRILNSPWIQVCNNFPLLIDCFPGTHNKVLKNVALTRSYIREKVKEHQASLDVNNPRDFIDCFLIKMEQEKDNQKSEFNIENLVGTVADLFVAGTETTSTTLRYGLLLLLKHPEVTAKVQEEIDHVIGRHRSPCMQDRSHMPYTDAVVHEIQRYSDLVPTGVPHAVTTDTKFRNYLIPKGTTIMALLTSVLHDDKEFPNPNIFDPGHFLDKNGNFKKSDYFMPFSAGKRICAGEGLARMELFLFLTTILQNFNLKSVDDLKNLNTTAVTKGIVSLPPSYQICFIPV
The experiment in a line: Inhibition of CYP2C8. The format is ADME.

In another data set the target is Cytochrome P450 3A4 (Homo sapiens, UniProt P08684). In words: Inhibition of CYP3A4. The format is ADME.
Data set [3] in a line: Metabolic stability in human liver microsomes after 1 hr. The format is ADME, Microsome. Particulars: read-out: Stability.
The target of a further data set is Cytochrome P450 2D6 (Homo sapiens, UniProt P10635). In words: Inhibition of CYP2D6. Type of data set: ADME.
Another data set concerns the target T2, Cytochrome P450 2B6 (Homo sapiens, UniProt P20813).
T2 sequence (P20813 whole entry): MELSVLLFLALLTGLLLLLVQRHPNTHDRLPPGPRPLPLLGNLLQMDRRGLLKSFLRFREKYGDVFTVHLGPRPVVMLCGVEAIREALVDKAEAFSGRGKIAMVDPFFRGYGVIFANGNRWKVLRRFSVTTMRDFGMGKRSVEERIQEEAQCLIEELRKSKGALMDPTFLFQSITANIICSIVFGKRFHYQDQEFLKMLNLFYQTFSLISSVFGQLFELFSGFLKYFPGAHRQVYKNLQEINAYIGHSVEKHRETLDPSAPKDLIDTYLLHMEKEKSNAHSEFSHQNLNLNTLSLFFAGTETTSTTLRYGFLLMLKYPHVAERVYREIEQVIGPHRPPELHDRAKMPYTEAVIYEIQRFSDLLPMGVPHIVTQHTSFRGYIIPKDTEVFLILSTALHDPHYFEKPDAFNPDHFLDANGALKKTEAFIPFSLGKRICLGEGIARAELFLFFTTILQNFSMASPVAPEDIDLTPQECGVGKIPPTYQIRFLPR
The experiment in a line: Inhibition of CYP2B6. The format is ADME.

For another data set, the target named is T3, Cytochrome P450 1A2 (Homo sapiens, UniProt P05177).
T3 sequence (P05177 whole entry): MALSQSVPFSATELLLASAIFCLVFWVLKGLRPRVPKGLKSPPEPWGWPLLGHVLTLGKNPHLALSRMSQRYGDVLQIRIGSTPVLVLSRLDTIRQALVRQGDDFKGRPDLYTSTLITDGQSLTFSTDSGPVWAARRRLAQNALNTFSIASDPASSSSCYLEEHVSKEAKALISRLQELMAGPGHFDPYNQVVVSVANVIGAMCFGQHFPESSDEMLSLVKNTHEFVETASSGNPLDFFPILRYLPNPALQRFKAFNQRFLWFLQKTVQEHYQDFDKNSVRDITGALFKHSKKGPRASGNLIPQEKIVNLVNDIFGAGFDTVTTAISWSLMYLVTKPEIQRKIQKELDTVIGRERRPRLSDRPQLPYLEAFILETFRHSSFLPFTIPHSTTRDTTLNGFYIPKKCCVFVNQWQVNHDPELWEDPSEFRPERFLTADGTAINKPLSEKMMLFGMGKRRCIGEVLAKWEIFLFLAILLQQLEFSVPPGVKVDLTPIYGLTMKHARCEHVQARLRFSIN
In words: Inhibition of CYP1A2. Type of data set: ADME.

Chain of Rho-associated protein kinase 2 (O75116 whole entry): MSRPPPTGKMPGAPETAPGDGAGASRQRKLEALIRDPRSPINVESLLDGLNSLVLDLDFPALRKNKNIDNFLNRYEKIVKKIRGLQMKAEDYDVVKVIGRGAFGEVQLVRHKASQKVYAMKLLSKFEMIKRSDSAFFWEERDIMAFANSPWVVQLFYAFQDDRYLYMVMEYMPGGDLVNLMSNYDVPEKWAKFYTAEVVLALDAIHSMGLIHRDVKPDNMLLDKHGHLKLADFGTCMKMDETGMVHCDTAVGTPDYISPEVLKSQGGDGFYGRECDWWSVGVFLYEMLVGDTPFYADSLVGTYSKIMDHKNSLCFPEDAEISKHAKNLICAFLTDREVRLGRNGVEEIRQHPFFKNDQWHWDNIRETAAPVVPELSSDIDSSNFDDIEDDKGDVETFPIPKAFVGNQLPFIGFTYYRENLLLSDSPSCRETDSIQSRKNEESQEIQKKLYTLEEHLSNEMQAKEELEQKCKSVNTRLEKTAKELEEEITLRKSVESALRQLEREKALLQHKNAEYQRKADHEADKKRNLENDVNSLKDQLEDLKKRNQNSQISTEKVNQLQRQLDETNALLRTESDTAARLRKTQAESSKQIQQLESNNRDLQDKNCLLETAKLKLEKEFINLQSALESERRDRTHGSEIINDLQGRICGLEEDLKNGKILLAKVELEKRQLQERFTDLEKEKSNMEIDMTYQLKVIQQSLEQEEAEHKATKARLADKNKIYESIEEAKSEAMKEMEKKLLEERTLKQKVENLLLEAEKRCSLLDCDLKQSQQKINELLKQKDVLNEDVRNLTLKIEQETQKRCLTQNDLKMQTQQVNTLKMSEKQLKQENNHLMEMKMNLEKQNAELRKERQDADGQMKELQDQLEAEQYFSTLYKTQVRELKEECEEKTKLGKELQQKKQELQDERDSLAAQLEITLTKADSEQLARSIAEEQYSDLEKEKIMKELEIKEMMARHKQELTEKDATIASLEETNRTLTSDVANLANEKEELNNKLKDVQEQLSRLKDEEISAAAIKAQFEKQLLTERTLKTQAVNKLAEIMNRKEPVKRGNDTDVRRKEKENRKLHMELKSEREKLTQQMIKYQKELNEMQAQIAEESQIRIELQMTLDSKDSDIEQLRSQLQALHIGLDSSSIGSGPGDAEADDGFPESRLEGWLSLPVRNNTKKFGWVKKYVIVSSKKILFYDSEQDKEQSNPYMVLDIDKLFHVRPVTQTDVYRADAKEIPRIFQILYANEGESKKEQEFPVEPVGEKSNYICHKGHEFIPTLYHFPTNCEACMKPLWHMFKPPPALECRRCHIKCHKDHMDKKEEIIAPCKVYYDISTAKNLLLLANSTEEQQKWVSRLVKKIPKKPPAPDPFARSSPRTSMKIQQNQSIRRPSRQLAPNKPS
Chain of Rho-associated protein kinase 1 (Q13464 whole entry): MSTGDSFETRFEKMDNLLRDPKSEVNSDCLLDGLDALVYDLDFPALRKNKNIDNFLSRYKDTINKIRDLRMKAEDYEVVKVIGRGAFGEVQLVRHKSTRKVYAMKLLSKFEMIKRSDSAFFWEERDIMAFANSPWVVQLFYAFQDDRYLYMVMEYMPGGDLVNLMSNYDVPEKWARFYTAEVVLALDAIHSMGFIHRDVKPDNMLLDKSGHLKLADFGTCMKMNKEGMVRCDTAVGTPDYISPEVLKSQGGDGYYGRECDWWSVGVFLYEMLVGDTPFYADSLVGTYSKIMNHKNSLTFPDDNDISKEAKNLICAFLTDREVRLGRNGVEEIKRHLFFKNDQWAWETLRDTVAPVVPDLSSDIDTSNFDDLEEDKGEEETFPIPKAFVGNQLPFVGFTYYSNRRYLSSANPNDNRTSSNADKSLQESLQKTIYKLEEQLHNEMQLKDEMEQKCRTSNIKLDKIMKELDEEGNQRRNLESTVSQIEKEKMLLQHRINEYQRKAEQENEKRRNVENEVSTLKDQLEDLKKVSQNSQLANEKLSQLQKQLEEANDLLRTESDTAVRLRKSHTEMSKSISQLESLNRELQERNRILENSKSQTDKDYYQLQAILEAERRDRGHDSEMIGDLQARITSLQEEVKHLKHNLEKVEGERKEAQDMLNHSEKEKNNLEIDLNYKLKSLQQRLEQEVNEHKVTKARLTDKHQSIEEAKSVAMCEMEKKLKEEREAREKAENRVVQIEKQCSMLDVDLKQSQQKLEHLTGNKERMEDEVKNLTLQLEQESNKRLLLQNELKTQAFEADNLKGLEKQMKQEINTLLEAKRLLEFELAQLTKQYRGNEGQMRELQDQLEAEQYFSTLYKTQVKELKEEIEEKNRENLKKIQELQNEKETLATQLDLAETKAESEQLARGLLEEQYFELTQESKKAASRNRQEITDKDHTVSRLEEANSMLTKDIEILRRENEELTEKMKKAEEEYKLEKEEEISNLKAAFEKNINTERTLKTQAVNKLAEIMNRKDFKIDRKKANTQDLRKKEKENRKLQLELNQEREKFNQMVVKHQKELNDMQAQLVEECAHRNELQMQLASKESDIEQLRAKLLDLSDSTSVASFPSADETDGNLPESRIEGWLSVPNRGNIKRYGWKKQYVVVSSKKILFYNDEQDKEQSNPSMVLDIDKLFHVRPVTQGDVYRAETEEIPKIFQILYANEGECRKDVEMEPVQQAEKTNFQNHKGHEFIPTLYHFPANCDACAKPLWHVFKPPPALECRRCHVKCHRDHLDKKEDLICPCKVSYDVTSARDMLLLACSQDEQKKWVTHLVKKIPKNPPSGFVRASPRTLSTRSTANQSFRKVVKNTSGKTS
Chain of Cytochrome P450 2C19 (P33261 whole entry): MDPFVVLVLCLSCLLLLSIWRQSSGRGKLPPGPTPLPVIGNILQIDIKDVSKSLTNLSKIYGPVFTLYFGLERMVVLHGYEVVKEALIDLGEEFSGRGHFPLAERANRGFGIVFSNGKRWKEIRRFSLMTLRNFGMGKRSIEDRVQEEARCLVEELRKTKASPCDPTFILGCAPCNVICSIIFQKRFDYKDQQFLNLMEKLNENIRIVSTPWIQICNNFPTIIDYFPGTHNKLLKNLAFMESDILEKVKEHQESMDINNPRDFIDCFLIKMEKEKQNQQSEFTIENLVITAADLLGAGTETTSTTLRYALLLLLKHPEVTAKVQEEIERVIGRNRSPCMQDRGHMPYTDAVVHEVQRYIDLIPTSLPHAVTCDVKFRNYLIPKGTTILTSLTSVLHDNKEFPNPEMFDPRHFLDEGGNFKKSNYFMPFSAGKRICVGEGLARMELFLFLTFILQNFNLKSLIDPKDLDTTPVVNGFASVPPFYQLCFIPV
Chain of Cytochrome P450 3A4 (P08684 whole entry): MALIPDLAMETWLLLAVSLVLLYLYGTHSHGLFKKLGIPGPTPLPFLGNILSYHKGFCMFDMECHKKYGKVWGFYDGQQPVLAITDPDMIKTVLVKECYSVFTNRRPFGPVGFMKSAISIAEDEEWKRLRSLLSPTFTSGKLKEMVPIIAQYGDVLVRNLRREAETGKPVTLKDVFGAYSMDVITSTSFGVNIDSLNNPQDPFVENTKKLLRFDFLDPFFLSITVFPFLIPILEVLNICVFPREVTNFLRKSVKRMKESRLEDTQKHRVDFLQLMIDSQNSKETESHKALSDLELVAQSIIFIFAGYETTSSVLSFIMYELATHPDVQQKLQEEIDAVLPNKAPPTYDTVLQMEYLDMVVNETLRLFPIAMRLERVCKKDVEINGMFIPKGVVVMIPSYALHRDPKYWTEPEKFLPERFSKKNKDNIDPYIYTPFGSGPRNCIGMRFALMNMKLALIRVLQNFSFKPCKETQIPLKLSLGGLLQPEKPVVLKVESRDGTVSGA
Chain of Cytochrome P450 2D6 (P10635 whole entry): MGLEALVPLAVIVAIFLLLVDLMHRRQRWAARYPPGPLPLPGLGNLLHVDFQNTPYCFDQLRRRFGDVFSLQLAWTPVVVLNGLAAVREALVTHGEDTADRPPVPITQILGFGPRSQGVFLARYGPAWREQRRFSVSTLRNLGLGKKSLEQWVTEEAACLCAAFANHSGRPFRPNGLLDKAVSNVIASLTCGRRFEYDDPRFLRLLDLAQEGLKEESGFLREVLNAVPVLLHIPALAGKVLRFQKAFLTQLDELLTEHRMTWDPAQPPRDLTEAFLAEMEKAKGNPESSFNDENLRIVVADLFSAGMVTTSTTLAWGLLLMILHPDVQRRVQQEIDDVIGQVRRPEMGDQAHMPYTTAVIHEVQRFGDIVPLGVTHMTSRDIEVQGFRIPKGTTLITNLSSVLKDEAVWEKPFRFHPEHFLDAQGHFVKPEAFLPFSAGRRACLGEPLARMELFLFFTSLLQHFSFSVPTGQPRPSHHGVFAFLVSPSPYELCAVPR

Take `CCN(CC)c1ncc(-c2ccncc2)nc1N1CCCN(C)CC1`: the IC50 came to 2600 nM in data set [1] and 6700 nM in data set [2].

In the case of `CN1CCCN(c2nc(-c3ccncc3)cnc2NCCO)CC1`, the IC50 worked out at 42000 nM in data set [1] and 3000 nM in data set [2].

As for `CN1CCCN(c2nc(-c3ccc4cn[nH]c4c3)cnc2N)CC1`, the half-maximal inhibitory concentration (IC50) in data set [1] and in data set [2] was over 10000 nM in each case.

Regarding `CNc1ncc(-c2ccncc2)nc1N1CCCN(C)CC1`, the IC50 in [1] was 6900 nM; in data set [2] it was 2400 nM.

In the case of `Nc1ncc(-c2ccncc2)nc1N1CCN(CCO)CC1`, the IC50 stood at 4600 nM in data set [1] and 2500 nM in data set [2].

Regarding `Cc1cc(-c2cnc(N)c(N3CCCN(C)CC3)n2)ccn1`, the IC50 in [1] and in data set [2] was over 100000 nM each time.

Consider `COCCNc1ncc(-c2ccncc2)nc1N1CCCN(C)CC1`, for which the IC50 in data set [1] was determined as 10000 nM; in data set [2], 52000 nM.

Consider `CN1CCCN(c2nc(-c3ccc4[nH]ncc4c3)cnc2N)CC1`, for which the IC50 stood at 2300 nM in [1] and 950 nM in data set [2].

`CNC1CCN(c2nc(-c3ccncc3)cnc2N2CCCC2)CC1`: the IC50 in data set [1] is 1800 nM; in [2], 250 nM.

Regarding `CN1CCCN(c2nc(-c3ccnc(N)c3)cnc2N)CC1`, the IC50 was 25000 nM in data set [1] and 53000 nM in data set [2].

Consider `CN1CCCN(c2nc(-c3ccnc4[nH]ccc34)cnc2N)CC1`, for which the results for the IC50 in data set [1] and in data set [2] were 1500 nM and 530 nM, respectively.

As to `NCC1CCN(c2nc(-c3ccncc3)cnc2N2CCCC2)CC1`, the results for the IC50 in [1] and in [2] were 130 nM and 28 nM, respectively.

For `c1cc(-c2cnc(N3CCCC3)c(N3CCNCC3)n2)ccn1`, the IC50 in data set [1] turned out to be 610 nM; in [2] it was 62 nM.

On to `CN1CCCN(c2nc(-c3ccncc3)cnc2N2CCOCC2)CC1`, for which the figures for the IC50 in data set [1] and in data set [2] were 68000 nM and 6300 nM, respectively.

On to `c1cc(-c2cnc(N3CCCC3)c(N3CCCNCC3)n2)ccn1`, for which the IC50 in data set [1] is 320 nM; in [2] it was 39 nM.

As for `COCCN(C)c1ncc(-c2ccncc2)nc1N1CCCN(C)CC1`, the results for the concentration for half-maximal inhibition (IC50) in data set [1] and in data set [2] were 48000 nM and 45000 nM, respectively.

With `CN1CCCN(c2nc(-c3ccncc3)cnc2N2CCCC2)CC1`, the figures for the IC50 in data set [1] and in data set [2] were 6000 nM and 330 nM, respectively.

With `c1cc(-c2cnc(N3CCCC3)c(N3CCCNCC3)n2)c2cc[nH]c2n1`, the IC50 in [1] stood at 170 nM.

As for `NC1CCN(c2nc(-c3ccnc4[nH]ccc34)cnc2N2CCCC2)CC1`, the results for the IC50 in data set [1] and in data set [2] were 300 nM and 89 nM, respectively.

Take `OCCN1CCN(c2nc(-c3ccncc3)cnc2N2CCCC2)CC1`: the Activity on Cytochrome P450 2C19, at Cytochrome P450 2C8, on Cytochrome P450 3A4, on Cytochrome P450 2D6, on Cytochrome P450 2B6 and on Cytochrome P450 1A2 was over 2 µM throughout. For the same molecule, the IC50 was 300 nM in data set [1] and 78 nM in data set [2]. The remaining at 1 h in data set [3] stood at 100%.

As for `CN1CCCN(c2nc(-c3cccc4[nH]ncc34)cnc2N)CC1`, the IC50 in data set [1] was 9600 nM; in data set [2], 2500 nM.

Regarding `CN1CCCN(c2nc(-c3cc[nH]n3)cnc2N)CC1`, the IC50 in data set [1] was found to be 37000 nM; in [2], 2900 nM.

As for `CN1CCCN(c2nc(-c3ccncc3)cnc2N(C)C)CC1`, the IC50 in data set [1] was found to be 6500 nM; in data set [2], 1700 nM.

On to `Cc1cnccc1-c1cnc(N)c(N2CCCN(C)CC2)n1`, for which the figures for the IC50 in data set [1] and in data set [2] were 120000 nM and 58000 nM, respectively.

Consider `CNCC1CCN(c2nc(-c3ccncc3)cnc2N2CCCC2)CC1`, for which the IC50 in data set [1] amounted to 150 nM; in [2], 49 nM.

For the molecule `NC1CCN(c2nc(-c3ccncc3)cnc2N2CCCC2)CC1`, the IC50 in data set [1] is 290 nM; in data set [2] it was 62 nM.

For the molecule `CN1CCCN(c2nc(-c3ccncc3)cnc2N)CC1`, the IC50 in data set [1] amounted to 4600 nM; in data set [2] it was 2500 nM.

In the case of `CN1CCCN(c2nc(-c3ccncc3)cnc2N2CCCCC2)CC1`, the IC50 was 18000 nM in [1] and 560 nM in [2].

For the molecule `c1cc(-c2cnc(N3CCCC3)c(N3CCNCC3)n2)c2cc[nH]c2n1`, the IC50 was 34 nM in [1] and 17 nM in data set [2].

For `CN(C)c1ncc(-c2ccncc2)nc1N1CCN(CCO)CC1`, the IC50 was determined as 1400 nM in data set [1] and 300 nM in [2].
